Source: patent US20120016019A1, “PHARMACEUTICAL COMPOSITION FOR TREATING OR PREVENTING CANCER” (priority 2010, published 2012)
Several values for one entry are separate records, joined by “and”; a condition that tells them apart may be missing. Equal entries are not always repeated.

What was measured:
MCF-7 = assay: Cell counts, MCF-7; type: cell-based; settings: for cell counts: single wells
Protocol: Cancer cell lines HCC 1419, MCF-7, MDA-MB-468, SKBR3, PC3, HT1299, Saos-2, C-6, AsPc, MDA-MB-231, RKO, HeLa and TT, and normal cell lines HME 50 HT, BJ and CCD-1074sk were tested for changes in metabolism (XTT assay) and cell death (cell counts).
Cells were plated into 48-well Corning CellBind™ plates at densities of 20,000 cells for normal cells and 10,000˜20,000 cells for cancer cells. 24 to 48 h after plating, cells were treated with the composition according to the invention at concentrations of 4.5e-2M. The first time point treated with the composition of the invention is 0 h. At 3 days after the first treatment with the composition of the invention, medium was changed and the composition of the invention at the same concentrations were added to the cultured cells.
Cells were harvested using Trypsin-EDTA at the designated time points. […] Two 48-well plates were used per cell line, and they were measured at 0 h, 12 h, 24 h, 48 h, 4 d and 7 d, respectively.
In the 1st plate, cells were treated with the composition according to the invention and medium was changed at 0 h and 3 d. […] As a result, LC-50 curves were generated in the 1st week.
At 0 h of the 2nd week, medium was exchanged with untreated medium for the remainder of the experiment. The untreated controls were not measured in the 2nd week (recovery) due to overconfluence by the end of the 1st week. As a result, Recovery curves were generated in the 2nd week.

HT 1299 = assay: Cell counts, HT 1299; type: cell-based; settings: for cell counts: single wells
Protocol: As a result, LC-50 curves were generated in the 1st week.
In the 2nd plate, 7 d of the 1st week (LC-50) is the same as 0 h of the 2nd week (recovery).
At 0 h of the 2nd week, medium was exchanged with untreated medium for the remainder of the experiment. […] As a result, Recovery curves were generated in the 2nd week.
HT 1299 is a non-small cell lung cancer. The cells have a homozygous partial deletion of the p53 protein, and lack expression of p53 protein.

CC(=O)O[C@H]1C(=O)[C@@]2(C)[C@H]([C@H](OC(=O)c3ccccc3)[C@]3(O)C[C@H](OC(=O)[C@H](O)[C@@H](NC(=O)c4ccccc4)c4ccccc4)C(C)=C1C3(C)C)[C@]1(OC(C)=O)CO[C@@H]1C[C@@H]2O [Taxol]
cell counts, Mean value (MCF-7; 1st week (LC50), 0 h): 55333
cell counts (MCF-7; 1st week (LC50), 0 h): 39000 and 67000 and 60000
cell counts, Mean value (MCF-7; 1st week (LC50), 24 h): 43667
cell counts (MCF-7; 1st week (LC50), 24 h): 39000 and 54000 and 38000
cell counts, Mean value (MCF-7; 1st week (LC50), 48 h): 23333
cell counts (MCF-7; 1st week (LC50), 48 h): 21000 and 19000 and 30000
cell counts, Mean value (MCF-7; 1st week (LC50), 4 d): 21667
cell counts, Mean value (MCF-7; 1st week (LC50), 7 d): 4333
cell counts (MCF-7; 1st week (LC50), 7 d): 4000 and 5000
cell counts, Mean value (MCF-7; 2nd week (recovery), 0 h): 2032
cell counts (MCF-7; 2nd week (recovery), 0 h): 2361 and 1648 and 2087
cell counts, Mean value (MCF-7; 2nd week (recovery), 24 h): 646
cell counts (MCF-7; 2nd week (recovery), 24 h): 807 and 728
cell counts, Mean value (MCF-7; 2nd week (recovery), 48 h): 2084
cell counts (MCF-7; 2nd week (recovery), 48 h): 1726 and 2010 and 2517
cell counts, Mean value (MCF-7; 2nd week (recovery), 4 d): 2013
cell counts (MCF-7; 2nd week (recovery), 4 d): 2135 and 1892 and 2011
cell counts, Mean value (MCF-7; 2nd week (recovery), 7 d): 1772
cell counts (MCF-7; 2nd week (recovery), 7 d): 2098 and 1693 and 1524
process of cell death (microscopy) (HT 1299): cell membranes were ruptured by toxicity of Taxol, and then nuclei of cells changed into black
cell counts, Mean value (HT 1299; 1st week (LC50), 0 h): 3737
cell counts, Mean value (HT 1299; 1st week (LC50), 12 h): 3705
cell counts (HT 1299; 1st week (LC50), 12 h): 2680 and 3085 and 5350
cell counts, Mean value (HT 1299; 1st week (LC50), 24 h): 3252
cell counts (HT 1299; 1st week (LC50), 24 h): 2810 and 4255 and 2690
cell counts, Mean value (HT 1299; 1st week (LC50), 48 h): 1464
cell counts (HT 1299; 1st week (LC50), 48 h): 1382 and 1526 and 1484
cell counts (HT 1299; 1st week (LC50), 4 d): 488 and 536 and 712
cell counts, Mean value (HT 1299; 1st week (LC50), 7 d): 782
cell counts (HT 1299; 1st week (LC50), 7 d): 982 and 736
cell counts, Mean value (HT 1299; 2nd week (recovery), 0 h): 919
cell counts (HT 1299; 2nd week (recovery), 0 h): 1193 and 789 and 776
cell counts, Mean value (HT 1299; 2nd week (recovery), 24 h): 227
cell counts, Mean value (HT 1299; 2nd week (recovery), 48 h): 432
cell counts (HT 1299; 2nd week (recovery), 48 h): 410 and 499 and 386
cell counts, Mean value (HT 1299; 2nd week (recovery), 4 d): 446
cell counts (HT 1299; 2nd week (recovery), 4 d): 322 and 545 and 470
cell counts, Mean value (HT 1299; 2nd week (recovery), 7 d): 118
cell counts (HT 1299; 2nd week (recovery), 7 d): 104 and 144 and 107
